Results as given in patent publication US20110207751A1, “HETEROCYCLIC COMPOUNDS AND USES AS ANTICANCER AGENTS” (priority 2010, published 2011).
Structures can show the parent of a compound that is named as a salt. Each block holds one molecule with its values, some of them ahead of it.

What was measured:
[1] = system: H460 human non-small cell lung cancer xenograft; assay: In vivo antitumor efficacy, H460 xenograft; set-up: species or system BALB/c immunodeficient nude mice; conditions: for Tumor inhibition rate %: by tumor weight
Excerpt: To evaluate the in vivo anticancer efficacy of COMPOUND O, H460 human non-small cell lung Cancer xenograft models in immunodeficient nude mice was used. The cell line and mice were maintained in the Pharmacology Lab of ACEA Bio (Hangzhou) CO., Ltd. The BALB/c immunodeficient nude mice were purchased from Shanghai SLAC Laboratory Animal, certification number: SCXKA (Shanghai) 2007-0005. The mouse weight was between 19±2 g. Only female mice were used in this study. The numbers of animals tested were as follows: 7 for each dose group, 7 for positive control group and 7 for negative control group.
Test Control. For negative control, each mouse was administered orally with the solvent only having the same volume and same concentration as those used in COMPOUND O test, 120 mg/kg once every other day (qod) for 25 days. For positive control, an oral anticancer compound, Etoposide was administered orally at 30 mg/kg qod for 25 days.
Preparation an Administration of Test Compounds. COMPOUND O was dissolved in 25% phospholipid (S75) and 75% polyvinylpyrrolidone (PL-PVP) then further diluted to 8 mg/ml in 0.9% NaCl aqueous solution. Each mouse was administered orally with the compound solution. Different dosages of COMPOUND O (120 mg/kg qod and 160 mg/kg q3d) were used in the study.
Preparation of tumor cells for transplantation and determination of compound efficacy. To prepare the cancer cells for H460 human non-small cell lung cancer xenograft model, the log phase growing cell in the flask were trypsinized and cells were re-suspended in PBS (pH 7.2) at 1.5×10^7 cells/ml. The cell suspension (3×10^6 cells) was subcutaneously injected into the auxiliary region (right-side) of each mouse. After the inoculated cancer cells grew to a tumor of certain size (150 mm^3) in the nude mice, the mice were randomized into different dosing groups and subjected to compound treatment. Between 3-4 weeks after the first dosing, mice were sacrificed and the transplanted tumors were removed from experimental mice. Each removed solid tumor was weighed; the tumor inhibition rate in each dosage group was calculated according to equation (1) in Example 1.
All used materials including animal food, animal cage, supporting materials and apparatus contacted by animals, were high-pressure sterilized. Nude mice were maintained in laminar flow shelves under SPF condition. After tumor transplantation, mouse weight and tumor size in each compound dosage group were dynamically monitored and plotted. The tumor size was determined by measuring the major axis (a) and minor axis (b) of the tumor, and tumor volume was calculated according to the formula (2) in Example 1.

[2] = system: H1838 cells (human non-small cell lung cancer cell line); assay: Inhibition of cell proliferation, xCelligence cell index; type: cell-based; conditions: NCI-H1838, 72 hr post compound treatment, read-out: calculated IC50
Excerpt: The biological activity of compounds disclosed herein was monitored and profiled using the Real-Time Cell Electronic Sensing (RT-CES®) system from ACEA Biosciences, Inc. The RT-CES system utilizes cell-substrate impedance technology to monitor cellular behavior inside tissue culture wells in a microtiter plate format. The technology features in the integration of molecular and cell biology with microelectronics and is based on the electronic detection of biological assay process. […]
For measurement of cell-substrate or cell-electrode impedance using RT-CES technology, microelectrodes having appropriate geometries are fabricated onto the bottom surfaces of microtiter plate or similar device, facing into the wells. […] When there are changes to the biological status of the cells analogue electronic readout signals are measured automatically and in real time, and are converted to digital signals for processing and for analysis. In a RT-CES system, a cell index (arbitrary representation of change in impedance) is automatically derived and provided based on measured electrode impedance values. […]
To quantify cell status based on the measured cell-electrode impedance, a parameter termed Cell Index is derived. Cell Index is a quantitative measure of the status of the cells in an electrode-containing well. […]

- IC50 [2]: 11.8 nM
Structure (SMILES): CCc1ccc(Nc2nc(-c3c(C)nc4sccn34)cs2)cc1 [COMPOUND O, 2-(4-ethylphenyl)amino-4-(6-methylimidazo[2,1-b]thiazol-5-yl)-thiazole monohydrobromide]
- TV inhibition rate % T/C ([1]; 120 mg/kg ig × 11 qod): 47.0%
- Tumor volume (mm^3) End ([1]; 120 mg/kg ig × 11 qod): 745.28 ± 245.55 mm^3
- Tumor volume (mm^3) Start ([1]; 120 mg/kg ig × 11 qod): 162.09 ± 53.94 mm^3
- Tumor weight (g) x ± SD ([1]; 120 mg/kg ig × 11 qod): 0.81 ± 0.29 g
- Tumor inhibition rate % ([1]; 120 mg/kg ig × 11 qod): 47.1%
- TV inhibition rate % T/C ([1]; 160 mg/kg ig × 9 q3d): 69.9%
- Tumor volume (mm^3) End ([1]; 160 mg/kg ig × 9 q3d): 524.67 ± 141.77 mm^3
- Tumor volume (mm^3) Start ([1]; 160 mg/kg ig × 9 q3d): 171.44 ± 53.63 mm^3
- Tumor weight (g) x ± SD ([1]; 160 mg/kg ig × 9 q3d): 0.46 ± 0.13 g
- Tumor inhibition rate % ([1]; 160 mg/kg ig × 9 q3d): 31.3%

Structure (SMILES): COc1cc([C@@H]2c3cc4c(cc3[C@@H](O[C@@H]3O[C@@H]5CO[C@@H](C)O[C@H]5[C@H](O)[C@H]3O)[C@H]3COC(=O)[C@H]23)OCO4)cc(OC)c1O [Etoposide, reference compound]
- TV inhibition rate % T/C ([1]; 30 mg/kg ig × 13 qod): 50.4%
- Tumor volume (mm^3) End ([1]; 30 mg/kg ig × 13 qod): 775.43 ± 302.62 mm^3
- Tumor volume (mm^3) Start ([1]; 30 mg/kg ig × 13 qod): 163.79 ± 57.22 mm^3
- Tumor weight (g) x ± SD ([1]; 30 mg/kg ig × 13 qod): 0.76 ± 0.29 g
- Tumor inhibition rate % ([1]; 30 mg/kg ig × 13 qod): 48.4%

- IC50 [2]: 3.16 nM
Structure (SMILES): CC[C@]1(O)C[C@H]2CN(CCc3c([nH]c4ccccc34)[C@@](C(=O)OC)(c3cc4c(cc3OC)N(C=O)[C@H]3[C@@](O)(C(=O)OC)[C@H](OC(C)=O)[C@]5(CC)C=CCN6CC[C@]43[C@@H]65)C2)C1 [vincristine]
